Experiments:
Bovine brain ECs = format: cell-based
cAMP levels = format: cell-based
BBB = test system: BBB; set-up: species or system rats; conditions: rat, in vivo

8-(4-chlorophenylthio)-adenosine-3':5' mono- phosphate, cyclic [CPTcAMP]
Effect on electrical resistance (agents that elevate cAMP) (Bovine brain ECs): increases rapidly

O=S(=O)(NCCNCC=Cc1ccc(Br)cc1)c1cccc2cnccc12 [H-89, N-[2-(p-bromocinnamylamino)ethyl]-5-isoquinolinesulfonamide]
Effect of protein kinase inhibitors on resistance (Bovine brain ECs): decreased

C=C[C@@]1(C)CC(=O)[C@]2(O)[C@@]3(C)[C@@H](O)CCC(C)(C)[C@@H]3[C@H](O)[C@H](OC(C)=O)[C@@]2(C)O1 [forskolin]
Effect on electrical resistance (agents that elevate cAMP) (Bovine brain ECs): also effective
Increase in cAMP levels (cAMP levels): two to threefold increase

CC(C)NCC(O)COc1cccc2ccccc12 (centres unmarked) [propranolol]
Flux across high resistance monolayers (monolayers of brain ECs; Fig. 7 top, about 300 nM labeled tracer, apical to basolateral, 37): moved rapidly

CN[C@@H]1C[C@H]2O[C@@](C)([C@@H]1OC)n1c3ccccc3c3c4c(c5c6ccccc6n2c5c31)C(=O)NC4 [staurosporine]
Increase in ability of peripherally administered BSA to enter the brain (BBB): three to fivefold
Increase in ability of peripherally administered sucrose to enter the brain (BBB): three to fivefold

OC[C@H]1O[C@@](CO)(O[C@H]2O[C@H](CO)[C@@H](O)[C@H](O)[C@H]2O)[C@@H](O)[C@@H]1O [sucrose]
Flux across low resistance monolayers (monolayers of brain ECs): much greater than that across high resistance monolayers

Atrial natriuretic factor
Effect on resistance (elevated cGMP) (Bovine brain ECs): simi- lar effects

IGF-1
Whether the factor accounts for the activity of astrocyte CM (Bovine brain ECs): could not be accounted for fully

PDGF
Whether the factor accounts for the activity of astrocyte CM (Bovine brain ECs): could not be accounted for fully

RO20-1724
Effect on electrical resistance (agents that elevate cAMP) (Bovine brain ECs): increases rapidly
Increase in cAMP levels (cAMP levels): two to threefold increase

calcitonin gene-related peptide
Effect on electrical resistance (agents that elevate cAMP) (Bovine brain ECs): also effective

Source: PMC2289219 (The Journal of Cell Biology, 1991)
